The text below walks through data of patent US5416212A, “Anilide derivatives” (Taisho Pharmaceutical Co., Ltd., priority 1991, dated 1995).

Structures are written as SMILES. Structures can show the parent of a compound that is named as a salt.

In one assay the target is T1, ACAT (Oryctolagus cuniculus, UniProt G1SFD9).
T1 construct: A microsome fraction of a rabbit small intestine prepared in a usual manner; from tissue; host or cells: rabbit small intestine, microsome fraction
T1 sequence (G1SFD9 1-524): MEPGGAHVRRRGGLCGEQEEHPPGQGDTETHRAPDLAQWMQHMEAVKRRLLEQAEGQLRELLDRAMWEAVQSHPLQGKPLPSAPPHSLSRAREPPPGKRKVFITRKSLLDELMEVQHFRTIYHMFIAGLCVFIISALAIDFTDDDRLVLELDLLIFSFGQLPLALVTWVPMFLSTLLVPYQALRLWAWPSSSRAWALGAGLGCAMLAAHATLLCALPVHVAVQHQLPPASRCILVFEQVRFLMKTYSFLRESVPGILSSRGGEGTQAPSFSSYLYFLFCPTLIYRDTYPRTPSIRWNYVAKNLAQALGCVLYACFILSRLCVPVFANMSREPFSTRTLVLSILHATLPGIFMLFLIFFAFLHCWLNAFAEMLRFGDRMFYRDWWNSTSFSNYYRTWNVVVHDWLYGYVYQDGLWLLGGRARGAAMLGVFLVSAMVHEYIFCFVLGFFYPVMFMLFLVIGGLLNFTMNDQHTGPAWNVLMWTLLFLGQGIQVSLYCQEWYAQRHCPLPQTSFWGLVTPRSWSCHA
Description: Test of ACAT Inhibitory Activity (rabbit small intestinal microsome fraction). It is filed as biochemical. Particulars: rabbit small intestinal microsomes, [1-14C]oleyl coenzyme, pH 7.4, 37° C., 6 minutes. As to the method:
Test of ACAT Inhibitory Activity
The test was carried out in accordance with the method described in J. Lipid Res., Vol. 22, p.
A microsome fraction of a rabbit small intestine prepared in a usual manner was suspended in a 0.04N potassium phosphate buffer solution (pH 7.4) containing 0.1N sucrose, 0.03N ethylenediaminetetraacetic acid (EDTA), and 0.05N potassium chloride. Each drug to be tested was dissolved in dimethyl sulfoxide.
The rabbit small intestinal microsome fraction suspension prepared above (250 μg as protein) and [1-^14 C]oleyl coenzyme were added to a 0.05N phosphate buffer solution (pH 7.4) containing 1% bovine serum albumin, followed by addition of a drug to be tested in a varied concentration. The total volume of the mixture was adjusted to 500 μl to prepare a sample. For control, a sample was prepared in the same manner, except for adding no test drug. The sample was incubated at 37° C. for 6 minutes, and the reaction was terminated by addition of a mixture of chloroform and methanol (mixing ratio=2:1). After stirring, the chloroform layer was collected and concentrated to dryness. […] A gel portion corresponding to cholesterol oleate was scraped, and its radioactivity was measured with a liquid scintillation counter (LSC-3000, manufactured by Aloka Co., Ltd.). Percent inhibition on ACAT activity was calculated using the following equation to obtain an IC50 value. [formula]

Another assay has as its system Normal Rat. Description: Test of Lipid Reduction in Normal Rat. Particulars: oral 100 mg/kg for 3 days; for Cholesterol in High Density Lipoprotein, Percent Change / Cholesterol in Low Density Lipoprotein, Percent Change / Total Cholesterol in Serum, Percent Change / Total Triglyceride in Serum, Percent Change: compared with the control; for Cholesterol in High Density Lipoprotein, Measured Value / Cholesterol in Low Density Lipoprotein, Measured Value / Total Cholesterol in Serum, Measured Value / Total Triglyceride in Serum, Measured Value: fasted 18 hours. It is filed as in vivo, rat (male Wister). Here is the method:
Test of Lipid Reduction in Normal Rat
Five 5-week-old male Wister rats per group were used as test animals. Each test drug was orally administered to the rat at a dose of 100 mg/kg for 3 days. A blood sample was taken from the rat having been deprive of food for 18 hours from the final administration, and the serum was separated. A total cholesterol value and a total triglyceride value were measured with an autoanalyzer (Hitachi 7150) in accordance with an enzyme method (Autosera, manufactured by Daiichi Kagaku K.K.). Lipoprotein was separated by a precipitation method (HDL-C.2, manufactured by Daiichi Kagaku K.K.), and the cholesterol in the lipoprotein was determined by an enzyme method. Five ml/kg of each test drug suspended in a 0.2% aqueous solution of sodium carboxymethyl cellulose was administered. For control, the same sodium carboxymethyl cellulose solution containing no test drug was administered.
Note: "Percent change" in Tables 2 and 3 is a rate of change in the respective cholesterol value compared with the control.

As for `CC(C)c1cccc(C(C)C)c1NC(=O)CSCCN1CCN(c2ccccc2)CC1` [Compound 17, N-(2,6-Diisopropylphenyl)-2-[2-(4-phenylpiperazinyl)ethylthio]acetamide dihydrochloride], the IC50 (as a rule, the concentration that gives 50% inhibition) against ACAT is 10 to 100 nM. On ACAT, `CC(C)c1cccc(C(C)C)c1NC(=O)CSCCCCCCCCCCN1CCN(c2ccccc2)CC1` [Compound 23, N-(2,6-Diisopropylphenyl)-2-[10-(4-phenylpiperazinyl)decylthio]acetamide] returned an IC50 of 10 to 100 nM. At ACAT, `CC(C)c1cccc(C(C)C)c1NC(=O)CSCCCCCCN1CCN(c2ccccc2)CC1` [Compound 1, N-(2,6-Diisopropylphenyl)-2-[6-(4-phenylpiperazinyl)hexylthio]acetamide] had a half-inhibitory concentration (IC50) of 10 to 100 nM. For the same compound, in the assay with Normal Rat, the “Cholesterol in High Density Lipoprotein, Percent Change” value is listed as 3.4%; the “Cholesterol in Low Density Lipoprotein, Percent Change” value was -50.8%; the “Total Cholesterol in Serum, Percent Change” value is listed as -12.2%; the “Total Triglyceride in Serum, Percent Change” value is -41.6%. In addition, in the assay on Normal Rat, the “Cholesterol in High Density Lipoprotein, Measured Value” amounted to 46.0 ± 1.7 mg/dL; the “Cholesterol in Low Density Lipoprotein, Measured Value” came out at 5.8 ± 2.0 mg/dL; the “Total Cholesterol in Serum, Measured Value” worked out at 51.8 ± 3.2 mg/dL; the “Total Triglyceride in Serum, Measured Value” was found to be 51.6 ± 2.7 mg/dL. At ACAT, `CC(C)c1cccc(C(C)C)c1NC(=O)CSCCCCCCN1CCN(c2ccccc2[N+](=O)[O-])CC1` [Compound 12, N-(2,6-Diisopropylphenyl)-2-{6-[4-(2-nitrophenyl)piperazinyl]hexylthio}acetamide] showed a half-inhibitory concentration (IC50) of 10 to 100 nM.

Consider `CC(C)c1cccc(C(C)C)c1NC(=O)CSCCCCCCCCCN1CCN(c2ccccc2)CC1` [Compound 22, N-(2,6-Diisopropylphenyl)-2-[9-(4-phenylpiperazinyl)nonylthio]acetamide], for which, on ACAT, the IC50 lay within 10 to 100 nM. The same measure, in the same setting: with `CC(C)c1cccc(C(C)C)c1NC(=O)CSCCCCCCN1CCN(c2ccc(Cl)cc2)CC1` [Compound 16, N-(2,6-Diisopropylphenyl)-2-{6-[4-(4-chlorophenyl)piperazinyl]hexylthio}acetamide] the figure was 10 to 100 nM.

Consider `CC(C)c1cccc(C(C)C)c1NC(=O)CSCCCCCCN1CCN(c2ccccc2Cl)CC1` [Compound 4, N-(2,6-Diisopropylphenyl)-2-{6-[4-(2-chlorophenyl)piperazinyl]hexylthio}acetamide], for which, on ACAT, the IC50 was in the range of 10 to 100 nM. The compound `Cc1cccc(N2CCN(CCCCCCSCC(=O)Nc3c(C(C)C)cccc3C(C)C)CC2)c1` [Compound 8, N-(2,6-Diisopropylphenyl)-2-{6-[4-(3-methylphenyl)piperazinyl]hexylthio}acetamide] gave an IC50 on ACAT of 10 to 100 nM. Same read-out and setting: with `COc1ccccc1N1CCN(CCCCCCSCC(=O)Nc2c(C(C)C)cccc2C(C)C)CC1` [Compound 2, N-(2,6-Diisopropylphenyl)-2-{6-[4-(2-methoxyphenyl)piperazinyl]hexylthio}acetamide dihydrochloride] the figure was 10 to 100 nM. As for `CC(C)c1cccc(C(C)C)c1NC(=O)CSCCCN1CCN(c2ccccc2)CC1` [Compound 18, N-(2,6-Diisopropylphenyl)-2-[3-(4-phenylpiperazinyl)propylthio]acetamide dihydrochloride], the IC50 on ACAT was in the range of 10 to 100 nM. At ACAT, `COc1ccc(N2CCN(CCCCCCSCC(=O)Nc3c(C(C)C)cccc3C(C)C)CC2)cc1` [Compound 3, N-(2,6-Diisopropylphenyl)-2-{6-[4-(4methoxyphenyl)piperazinyl]hexylthio}acetamide] displayed a 50% inhibitory concentration (IC50) of 10 to 100 nM. Same read-out and setting: as for `CC(C)c1cccc(C(C)C)c1NC(=O)CSCCCCCCCCCCCCN1CCN(c2ccccc2)CC1` [Compound 24, N-(2,6-Diisopropylphenyl)-2-[12-(4-phenylpiperazinyl)dodecylthio]acetamide], the figure is 10 to 100 nM; as for `CC(C)c1cccc(C(C)C)c1NC(=O)CSCCCCCCCN1CCN(c2ccccc2)CC1` [Compound 25, N-(2,6-Diisopropylphenyl)-2-[7-(4-phenylpiperazinyl)heptylthio]acetamide], 10 to 100 nM; as for `CC(C)c1cccc(C(C)C)c1NC(=O)CSCCCCCCN1CCN(c2cc(Cl)ccn2)CC1` [Compound 15, N-(2,6-Diisopropylphenyl)-2-{6-[4-(4-chloro-2-pyridyl)piperazinyl]hexylthio}acetamide], 10 to 100 nM. `CC(C)c1cccc(C(C)C)c1NC(=O)CSCCCCN1CCN(c2ccccc2)CC1` [Compound 19, N-(2,6-Diisopropylphenyl)-2-[4-(4-phenylpiperazinyl)butylthio]acetamide dihydrochloride] yielded an IC50 against ACAT of 10 to 100 nM.

Regarding `CC(C)c1cccc(C(C)C)c1NC(=O)CSCCCCCCN1CCN(c2cccc(C(F)(F)F)n2)CC1` [Compound 14, N-(2,6-Diisopropylphenyl)-2-{6-[4-(6-trifluoromethyl-2-pyridyl)piperazinyl]hexylthio}acetamide], at ACAT, the IC50 was 10 to 100 nM. `CC(C)c1cccc(C(C)C)c1NC(=O)CSCCCCCCN1CCN(c2ccccn2)CC1` [Compound 5, N-(2,6-Diisopropylphenyl)-2-{6-[4-(2pyridyl)piperazinyl]hexylthio}acetamide] gave an IC50 against ACAT of 10 to 100 nM. The same measure, in the same setting: with `CC(C)c1cccc(C(C)C)c1NC(=O)CSCCCCCCN1CCN(c2ncccn2)CC1` [Compound 6, N-(2,6-Diisopropylphenyl)-2-{6-[4-(2-pyrimidyl)piperazinyl]hexylthio}acetamide] the figure was 10 to 100 nM; with `CC(C)c1cccc(C(C)C)c1NC(=O)CSCCCCCCCCN1CCN(c2ccccc2)CC1` [Compound 21, N-(2,6-Diisopropylphenyl)-2-[8-(4-phenylpiperazinyl)octylthio]acetamide], 1 to 10 nM; with `CC(C)c1cccc(C(C)C)c1NC(=O)CSCCCCCCN1CCN(c2ccc(F)cc2)CC1` [Compound 11, N-(2,6-Diisopropylphenyl)-2-{6-[4-(4-fluorophenyl)piperazinyl]hexylthio}acetamide], 10 to 100 nM. As to `CCCCCCCCCCC(C)(C)C(=O)Nc1c(OC)cc(OC)cc1OC` [Compound B, N-(2,4,6-Trimethoxyphenyl)-2,2-dimethyldodecylamide, reference compound], in the assay with Normal Rat, the “Cholesterol in High Density Lipoprotein, Percent Change” value came out at 15.5%; the “Cholesterol in Low Density Lipoprotein, Percent Change” value turned out to be 0.0%; the “Total Cholesterol in Serum, Percent Change” value was 7.1%; the “Total Triglyceride in Serum, Percent Change” value stood at 18.8%. Further, in the assay on Normal Rat, the “Cholesterol in High Density Lipoprotein, Measured Value” stood at 51.4 ± 2.2 mg/dL; the “Cholesterol in Low Density Lipoprotein, Measured Value” is 11.8 ± 5.1 mg/dL; the “Total Cholesterol in Serum, Measured Value” was determined as 63.2 ± 3.1 mg/dL; the “Total Triglyceride in Serum, Measured Value” amounted to 108.0 ± 5.1 mg/dL. Consider `CC(C)c1cccc(C(C)C)c1NC(=O)CSCCCCCCN1CCN(c2cccc(Cl)c2)CC1` [Compound 7, N-(2,6-Diisopropylphenyl)-2-{6-[4-(3-chlorophenyl)piperazinyl]hexylthio}acetamide], for which, at ACAT, the 50% inhibitory concentration (IC50) is 10 to 100 nM.

On ACAT, `Cc1ccccc1N1CCN(CCCCCCSCC(=O)Nc2c(C(C)C)cccc2C(C)C)CC1` [Compound 9, N-(2,6-Diisopropylphenyl)-2-{6-[4-(2-methylphenyl)piperazinyl]hexylthio}acetamide fumarate] registered an IC50 of 10 to 100 nM. For the compound `CC(C)c1cccc(C(C)C)c1NC(=O)CSCCCCCCN1CCN(c2cccc(C(F)(F)F)c2)CC1` [Compound 10, N-(2,6-Diisopropylphenyl)-2-{6-[4-(3-trifluoromethylphenyl)piperazinyl]hexylthio}acetamide], the half-maximal inhibitory concentration (IC50) on ACAT was 10 to 100 nM.
